One may read the IC50 as the concentration needed to halve the response being measured.

Marks after values point to notes of the source that are not given here.

Test [1] concerns TNF-induced death of C57BL/6 mice. Briefly: TNF-induced mouse lethality assay. Format: in vivo. To be noted: for Survival (%): C57BL/6 male mice, 20 or 40 mg/kg p.o. 30 min before hTNF 8 μg/kg + D-galactosamine 700 mg/kg i.p., 24 hours; for survival rate of mice compared to the control group: C57BL/6 mice, pre-treated p.o., TNF + D-galactosamine. How it is done:
In this experiment, the TNF-induced mouse death inhibition activity by the compound of the present invention was investigated. To this end, mice were pretreated with the compound of the present invention, and the survival rate of the mice was measured against TNF-induced death.
In particular, after C57BL/6 mice were fasted for 24 hours, 100 μL of the compounds of Examples 2, 32, 39, 40, 44, 47, and 48 in a buffer composition of 10% DMSO in 90% PBS was orally administered at a concentration of 20 or 40 mg/kg. After 30 minutes, a mixed solution of human recombinant TNF 8 μg/kg and D-galactosamine 700 mg/kg in PBS buffer was intraperitoneally administered at 100 μL per mouse, the survival rate of mice was measured every 3 hours from the time of intraperitoneal administration and the experiment was terminated 24 hours later. The mice were divided into 5 groups, the experiment was repeated 5 times, and the Example compounds used for each experiment are as shown in FIG. 7(a, b).

The test system of test [2] is HEK-Blue TNF cells. Description: Inhibition of TNF response in HEK-Blue TNF cells (SEAP reporter gene assay). To be noted: Homo sapiens, TNF 0.2 ng/mL, absorbance 620 nm. Format: cell-based. How it is done: In this experiment, the TNF-inhibitory activity of the compound of the present invention was evaluated in HEK-Blue TNF cells. To this end, the transformed HEK-Blue TNF cells that respond specifically to the binding of TNF to TNFRs on the cell surface were treated with the compound of Example 48, followed by a reporter gene assay.
HEK-Blue TNF cells are human embryonic kidney cells that were transformed to express SEAP (secreted embryonic alkaline phosphatase) reporter gene having the binding site for activated NF-κB when TNF binds to TNFR on the cell surface and NF-κB is activated in the cell. […]
An experimental method was used in which SEAP, a reporter gene having the binding site for activated NF-κB in the intracellular signal transduction process, is expressed when human embryonic kidney cells, HEK-Blue TNF cells, are treated with recombinant TNF. In particular, SEAP is expressed when TNF (0.2 ng/mL) is added to HEK-Blue TNF cells, and the degree of color development is measured by treating the SEAP-specific QUANTI-Blue™ solution followed by reading absorbance at 620 nm to obtain IC50 value. The inhibition rate (%) of TNF was calculated by the following formula. […]
(§1) IC50 values were statistically calculated using Prism 6 (GraphPad).
(In general: A reporter such as luciferase makes a cellular process visible.)

Test [3] addresses TNF-TNFR1 (Homo sapiens, UniProt P01375). Briefly: TNF-TNFR1 binding inhibition, FRET assay. To be noted: for IC50: FRET (HTRF ratio), 0.25 nM TNF, 0.25 nM His-labeled TNFR1. How it is done: (§2) In this experiment, the inhibitory activity of the compound of the present invention was evaluated using a fluorescence resonance energy transfer (FRET) assay to measure the binding of TNF-TNFR1 or TNF-TNFR2.
(§3) In particular, biotin-labeled 0.25 nM TNF, XL-665-labeled streptavidin, 0.25 nM His-labeled TNFR1, 1 nM His-labeled TNFR2, and Europium-Gold-labeled anti-his Ab were used. First, each 2 μL (10% DMSO) of the compounds of Examples 48 and 51 was added in 384 wells. After 4 μL of 0.25 nM TNF was added, 4 μL of each of 0.25 nM His-labeled TNFR1 or 1 nM His-labeled TNFR2 was added thereto and incubated at room temperature for 1 hour. After 1 hour incubation, 5 μL of XL-665-labeled streptavidin and 5 μL of Europium-Gold-labeled anti-his Ab were added and further incubated at room temperature. […] was measured at 622 nm and 665 nm. The reagent used at this time was prepared by dissolving in PPI-europium detection buffer.
(§4) First, binding inhibitory activity of the compounds of the present invention to TNF and TNFR1 or TNFR2 was evaluated at a single concentration ([…]) of the compounds.
(§5) Then, IC50 values were obtained with the various concentrations of the compounds of Examples 48 and 51. At this time, the value was confirmed through the HTRF ratio, and the HTRF ratio was calculated by the following formula.
as §1
(In general: In TR-FRET formats the signal depends on donor and acceptor labels being close together.)

The target of test [4] is TNF-TNFR2 (Homo sapiens, UniProt P01375). Description: TNF-TNFR2 binding inhibition, FRET assay. To be noted: for IC50: FRET (HTRF ratio), 0.25 nM TNF, 1 nM His-labeled TNFR2. How it is done:
as §2, §3, §4, §5, §1

Test [5] concerns RIP1. Description: RIP1 ubiquitination, immunoprecipitation with TNFR1 in human peripheral blood T cells. Type of test: cell-based. To be noted: compound 0.1 μM 24 hours, then TNF 10 minutes, vs hTNF alone. How it is done: Two experiments were conducted to examine the TNF-cell signal transduction inhibitory activity by the compound of the present invention. First, immunoprecipitation was performed to evaluate the ubiquitination of an upstream protein of the TNF signaling pathway, that is, RIP1.
In particular, human peripheral blood T cells were treated with the compound of Example 48 (0, 0.1 μM) for 24 hours followed by with TNF for 10 minutes, and then immunoprecipitation was performed with TNFR1 protein.

The subject of test [6] is TNF-cell signal transduction pathway. Description: TNF-cell signal transduction, Western blot in L929 cells. To be noted: hTNF 10 ng/ml + compound 0.01, 0.1, 1, 10 μM, vs hTNF alone. Type of test: cell-based, mouse. How it is done:
Second, the inhibition of TNF signal transduction activity of Example 48 was confirmed. In order to examine the TNF-cell signal transduction inhibitory activity by the compound of the present invention, Western blot analysis was performed on proteins of the signal transduction pathway, namely phospho-p65, phospho-IKKα/β, phospho-SAPK/JNK, and phospho-AKT.
In particular, hTNF alone (10 ng/ml) or a mixture of hTNF and the compound of Example 48 (0.01, 0.1, 1, 10 μM) was incubated for 30 minutes, and then the incubated mixture was applied to mouse fibroblast L929 cells for 10 minutes. After the treatment, Western blot analysis was performed for phospho-p65, phospho-IKKα/β, phospho-SAPK/JNK, and phospho-AKT.

The test system of test [7] is mouse fibroblast L929 cells. Briefly: TNF-induced apoptosis inhibitory activity in L929 cells (MTS assay). Type of test: cell-based. To be noted: TNF 20 ng/mL + actinomycin D, compound 0 to 40 μM, 24 hours, read-out: IC50, inhibition of TNF-induced apoptosis. How it is done:
In this experiment, the TNF-induced apoptosis inhibitory activity by the compound of the present invention was investigated. To this end, mouse fibroblasts were treated with the chromenone and quinolone derivative compounds prepared in the above Examples, and then cell viability was measured by a conventionally known MTS assay.
Mouse fibroblast L929 cells were purchased from the American Type Culture Collection (ATCC Manassas, Va.), and then cultured in RPMI medium containing 10% Fetal Bovine Serum (FBS) and 1% antibiotics at the incubator in which 5% CO2 and humidity at 37° C. were maintained.
Mouse fibroblast L929 cells were treated with recombinant TNF and actinomycin D, a sensitizer, to induce apoptosis, with which an assay capable of confirming apoptosis inhibitory activity was established. In particular, apoptosis conditions were induced by adding actinomycin D as a sensitizer and TNF (20 ng/mL) to […], and then L929 cells were pretreated with the compounds of Examples 52, 54, and 55 at a concentration of 0 to 40 μM for 24 hours. After 24 hours, they were treated with MTS for 3 hours, and then the absorbance was measured at 490 nm to calculate IC50 values. % Inhibition of TNF was calculated by the following formula.
% Inhibition of TNF=(OD value of the group treated with the compound−OD value of the group treated with TNF and actinomycin D)/(OD value of the group treated with actinomycin D−OD value of the group treated with TNF and actinomycin D)×100
IC50 values were statistically calculated using Prism 6 (GraphPad) (IC50: 50% inhibitory concentration).

[8] abbreviates: single concentration (10 PM), FIG. 4.

TNF-TNFR1, sequence (P01375 77-233 limits assumed): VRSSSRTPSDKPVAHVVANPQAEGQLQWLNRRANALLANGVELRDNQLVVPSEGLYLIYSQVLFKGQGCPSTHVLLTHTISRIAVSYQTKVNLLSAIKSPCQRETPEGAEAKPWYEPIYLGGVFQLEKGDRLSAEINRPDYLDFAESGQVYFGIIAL
TNF-TNFR2, sequence (P01375 77-233 limits assumed): as above

Turning to `O=C(O)c1c(-c2cc(F)ccc2F)[nH]c2cc(Cl)ccc2c1=O` [Example 2, 2-(2,5-difluorophenyl)-3-carboxy-7-chloro-4-(1H)-quinolone], in test [1], the “Survival (%)” value stood at 60% and the “survival rate of mice compared to the control group” value is reported as “increased”.

For `O=c1c(O)c(-c2cc(F)ccc2F)oc2cc(Cl)ccc12` [Example 32, 7-chloro-2-(2,5-difluorophenyl)-3-hydroxy-4H-chromen-4-one], in test [1], the “Survival (%)” value was 90 *** % and the “survival rate of mice compared to the control group” value is “increased”.

For the compound `COc1ccc2c(=O)c(O)c(-c3cc(F)cc(F)c3)oc2c1` [Example 39, 2-(3,5-difluorophenyl)-3-hydroxy-7-methoxy-4H-chromen-4-one], in test [1], the “Survival (%)” value came to 40% and the “survival rate of mice compared to the control group” value is reported as “increased”.

Consider `COc1c(-c2cc(F)ccc2F)oc2cc(Cl)ccc2c1=O` [Example 40, 7-chloro-2-(2,5-difluorophenyl)-3-methoxy-4H-chromen-4-one], for which, in test [1], the “Survival (%)” value is reported as 50 * % and the “survival rate of mice compared to the control group” value is listed as “increased”.

As to `COc1c(-c2cc(F)cc(F)c2)oc2cc(F)ccc2c1=O` [Example 44, 2-(3,5-difluorophenyl)-7-fluoro-3-methoxy-4H-chromen-4-one], in test [1], the “Survival (%)” value was 60 ** % and the “survival rate of mice compared to the control group” value was “increased”.

For the compound `COc1ccc2c(=O)c(OC)c(-c3ccc(F)cc3F)oc2c1` [Example 47, 2-(2,4-difluorophenyl)-3,7-dimethoxy-4H-chromen-4-one], in test [1], the “Survival (%)” value is 40 * % and the “survival rate of mice compared to the control group” value was “increased”.

`O=C(O)c1c(-c2ccc(OCCOc3ccc(-c4oc5cc(Cl)ccc5c(=O)c4C(=O)O)c(F)c3)cc2F)oc2cc(Cl)ccc2c1=O` [Example 48, 2,2′-((ethane-1,2-diylbis(oxy))bis(2-fluoro-4,1-phenylene))bis(7-chloro-4-oxo-4H-chromene-3-carboxylic acid)] showed an IC50 in test [2] of 9.67 µM. In addition, the IC50 in test [3] was found to be 3.56 µM. For the same compound, in test [3] (setting [8]), the “binding inhibitory activity, TNF and TNFR1” value is listed as “inhibit the binding”; the “binding inhibitory effect compared with SPD304 and Quercetin, TNF-TNFR1” value is recorded as “higher binding inhibitory effect than SPD304”. Besides, the IC50 in test [4] came to 3.92 µM. In test [4] (setting [8]), the “binding inhibitory activity, TNF and TNFR2” value was “inhibit the binding”; the “binding inhibitory effect compared with SPD304 and Quercetin, TNF-TNFR2” value was “higher binding inhibitory effect than SPD304”. For the same compound, the “degree of RIP1 ubiquitination activated by TNF” value in test [5] was “reduced”. In test [6], the “level of phospho-AKT” value is reported as “reduced”, the “level of phospho-IKKα/β” value is on record as “reduced”, the “level of phospho-SAPK/JNK” value is given as “reduced” and the “level of phospho-p65” value is listed as “reduced”. Besides, in test [1], the “Survival (%)” value was 50 * % and the “survival rate of mice compared to the control group” value was “increased”.

As to `O=C(O)c1c(-c2ccc(OCCOCCOc3ccc(-c4oc5cc(Cl)ccc5c(=O)c4C(=O)O)c(F)c3)cc2F)oc2cc(Cl)ccc2c1=O` [Example 51, 2,2′-(((oxybis(ethane-2,1-diyl))bis(oxy))bis(2-fluoro-4,1-phenylene))bis(7-chloro-4-oxo-4H-chromene-3-carboxylic acid)], the IC50 in test [3] stood at 14.5 µM; in test [4], 22.3 µM. Further, the “binding inhibitory activity, TNF and TNFR1” value in test [3] (setting [8]) is “inhibit the binding”. In addition, the “binding inhibitory activity, TNF and TNFR2” value in test [4] (setting [8]) is “inhibit the binding”.

Consider `O=C(NCCNC(=O)c1c(-c2cc(F)ccc2F)oc2cc(Cl)ccc2c1=O)c1c(-c2cc(F)ccc2F)oc2cc(Cl)ccc2c1=O` [Example 52, N,N′-(ethane-1,2-diyl)bis(7-chloro-2-(2,5-difluorophenyl)-4-oxo-4H-chromene-3-carboxamide)], for which the IC50 in test [7] came to 1.48 µM.

As to `O=C(NCCCCNC(=O)c1c(-c2cc(F)ccc2F)oc2cc(Cl)ccc2c1=O)c1c(-c2cc(F)ccc2F)oc2cc(Cl)ccc2c1=O` [Example 54, N,N′-(butane-1,4-diyl)bis(7-chloro-2-(2,5-difluorophenyl)-4-oxo-4H-chromene-3-carboxamide)], the concentration for half-maximal inhibition (IC50) in test [7] was 7.19 µM.

With `O=C(c1c(-c2cc(F)ccc2F)oc2cc(Cl)ccc2c1=O)N1CCN(C(=O)c2c(-c3cc(F)ccc3F)oc3cc(Cl)ccc3c2=O)CC1` [Example 55, 3,3′-(piperazine-1,4-dicarbonyl)bis(7-chloro-2-(2,5-difluorophenyl)-4H-chromen-4-one)], the IC50 in test [7] amounted to 7.63 µM.

The values above are taken from patent US20230271925A1, “NOVEL TNF ACTIVITY INHIBITOR COMPOUND, AND PHARMACEUTICALLY ACCEPTABLE SALT THEREOF” (ILAB, priority 2020, published 2023).
